From patent publication US12674038B2, “Composition and method for microbial control for use with polymers” (MICROBAN PRODUCTS COMPANY, priority 2022, dated 2026)

Tested on: Escherichia coli (gram-negative bacteria)
Assay: Antimicrobial efficacy of polymer samples against Escherichia coli, ISO22196 test method
Settings: E. coli

In the case of `O=C(O)c1ccccc1` [GBA, benzoic acid], the “log reduction (consistent antimicrobial efficacy)” value (5250 ppm level in TPU) is reported as greater than 1 and the log reduction (TPU, 4500 ppm GBA alone) is reported as “less than 1”.
